Test system: T1, ethyl carbamate hydrolase (ECH; AcECH)
T1 construct: codon-optimized synthetic gene in pET24b (NdeI/XhoI), C-terminal His-tag kept, E. coli BL21(DE3), Ni-NTA purified; about 33 kDa by SDS-PAGE
Assay: Berthelot indophenol ammonia assay, […] nm; Lineweaver-Burk
Assay type: biochemical, Acinetobacter calcoaceticus
Details: free enzyme; 5-30 mM EC; standard assay 70 °C, pH 7.0 (not restated for kinetics)

CCOC(N)=O [EC, ethyl carbamate]
Km: 9.38 mM

— publication PMC8997832, “Genetic Engineering Production of Ethyl Carbamate Hydrolase and Its Application in Degrading Ethyl Carbamate in Chinese Liquor” (Foods, 2022)
